Laboratory results as given in ChEMBL document CHEMBL1201862, “PubChem BioAssay data set” (2004).
Calls of active or inactive are those of the source.

Tests used:
Cytochrome P450 2C19 = Cytochrome P450 2C19 (Homo sapiens, UniProt P33261); experiment: Cytochrome panel assay with activity outcomes. Panel member name: p450-cyp2c19 Compounds with AC50 equal or less than 10 uM are considered active; type: functional
Cytochrome P450 1A2 = biological target: T1, Cytochrome P450 1A2 (Homo sapiens, UniProt P05177);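 also: PubChem cytochrome P450 panel assay, CYP1A2 panel member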
T1 sequence (P05177 whole entry): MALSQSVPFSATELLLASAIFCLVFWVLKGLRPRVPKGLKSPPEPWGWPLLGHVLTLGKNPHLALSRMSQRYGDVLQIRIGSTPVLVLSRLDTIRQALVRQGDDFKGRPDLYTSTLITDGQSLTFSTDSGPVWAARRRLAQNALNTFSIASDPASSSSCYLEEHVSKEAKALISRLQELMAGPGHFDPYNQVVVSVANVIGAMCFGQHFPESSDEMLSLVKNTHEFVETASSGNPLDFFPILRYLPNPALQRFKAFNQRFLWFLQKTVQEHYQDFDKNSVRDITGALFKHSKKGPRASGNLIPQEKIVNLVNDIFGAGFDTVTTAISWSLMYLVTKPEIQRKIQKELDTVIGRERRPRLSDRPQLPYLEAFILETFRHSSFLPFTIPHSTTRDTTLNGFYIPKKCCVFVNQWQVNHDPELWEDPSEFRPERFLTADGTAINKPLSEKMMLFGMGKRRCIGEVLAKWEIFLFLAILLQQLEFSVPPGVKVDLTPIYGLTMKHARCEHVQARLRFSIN

Cytochrome P450 2D6 = Cytochrome P450 2D6 (Homo sapiens, UniProt P10635);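 also: CYP2D6 member of a cytochrome P450 panel assay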
Chain of Cytochrome P450 2D6 (P10635 whole entry): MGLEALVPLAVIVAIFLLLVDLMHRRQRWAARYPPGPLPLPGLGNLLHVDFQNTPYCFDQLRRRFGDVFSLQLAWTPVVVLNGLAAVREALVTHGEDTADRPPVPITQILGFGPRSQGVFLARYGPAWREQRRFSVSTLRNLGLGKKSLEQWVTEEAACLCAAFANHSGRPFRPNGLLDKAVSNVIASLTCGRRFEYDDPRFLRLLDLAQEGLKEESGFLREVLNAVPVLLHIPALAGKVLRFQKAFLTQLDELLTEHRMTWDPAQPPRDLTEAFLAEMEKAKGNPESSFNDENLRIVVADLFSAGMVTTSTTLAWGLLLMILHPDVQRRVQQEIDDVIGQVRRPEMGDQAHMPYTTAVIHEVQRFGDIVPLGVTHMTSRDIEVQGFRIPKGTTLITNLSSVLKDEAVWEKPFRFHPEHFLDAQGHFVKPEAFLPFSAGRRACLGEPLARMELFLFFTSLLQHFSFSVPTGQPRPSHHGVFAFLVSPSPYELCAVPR

Cytochrome P450 3A4 = Cytochrome P450 3A4 (Homo sapiens, UniProt P08684);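 also: CYP3A4 tested as one member of a cytochrome P450 panel screen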
Chain of Cytochrome P450 3A4 (P08684 whole entry, the tested form may be a part): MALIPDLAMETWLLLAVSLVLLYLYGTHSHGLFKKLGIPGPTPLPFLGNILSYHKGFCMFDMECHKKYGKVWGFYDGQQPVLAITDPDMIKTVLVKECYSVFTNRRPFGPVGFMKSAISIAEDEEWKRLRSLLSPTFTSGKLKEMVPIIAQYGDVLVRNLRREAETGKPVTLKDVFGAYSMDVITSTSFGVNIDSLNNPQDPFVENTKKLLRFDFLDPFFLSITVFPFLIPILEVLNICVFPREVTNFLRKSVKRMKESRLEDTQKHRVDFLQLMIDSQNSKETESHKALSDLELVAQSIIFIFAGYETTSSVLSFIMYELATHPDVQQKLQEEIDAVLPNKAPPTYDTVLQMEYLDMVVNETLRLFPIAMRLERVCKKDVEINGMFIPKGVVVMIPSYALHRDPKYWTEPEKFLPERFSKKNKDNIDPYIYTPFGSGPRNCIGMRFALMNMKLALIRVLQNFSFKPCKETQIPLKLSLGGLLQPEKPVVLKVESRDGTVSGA

[1] = biological target: T2, RNA-binding protein pos-1 (Caenorhabditis elegans, UniProt G5EF15); experiment: disruptors of C. elegans POS-1 RNA interaction – biochemical, fluorescence polarization, dose response (AID 1964);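 also: purified POS-1 fused to maltose binding protein made in E. coli; potency of compounds blocking POS-1 binding to fluorescent RNA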
T2 sequence (G5EF15 whole entry): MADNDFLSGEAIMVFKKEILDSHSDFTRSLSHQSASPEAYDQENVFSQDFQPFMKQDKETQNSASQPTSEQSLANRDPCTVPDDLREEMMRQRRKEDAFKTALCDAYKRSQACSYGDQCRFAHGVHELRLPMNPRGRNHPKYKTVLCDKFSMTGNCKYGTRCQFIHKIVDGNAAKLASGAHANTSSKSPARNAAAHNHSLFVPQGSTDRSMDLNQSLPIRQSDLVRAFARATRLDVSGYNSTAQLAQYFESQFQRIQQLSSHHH

[2] = biological target: T3, Zinc finger protein mex-5 (Caenorhabditis elegans, UniProt Q9XUB2); experiment: potency of MEX-5 RNA-binding blockers – biochemical, C. elegans, fluorescence polarization, dose response (AID 1960)
T3 sequence (Q9XUB2 whole entry): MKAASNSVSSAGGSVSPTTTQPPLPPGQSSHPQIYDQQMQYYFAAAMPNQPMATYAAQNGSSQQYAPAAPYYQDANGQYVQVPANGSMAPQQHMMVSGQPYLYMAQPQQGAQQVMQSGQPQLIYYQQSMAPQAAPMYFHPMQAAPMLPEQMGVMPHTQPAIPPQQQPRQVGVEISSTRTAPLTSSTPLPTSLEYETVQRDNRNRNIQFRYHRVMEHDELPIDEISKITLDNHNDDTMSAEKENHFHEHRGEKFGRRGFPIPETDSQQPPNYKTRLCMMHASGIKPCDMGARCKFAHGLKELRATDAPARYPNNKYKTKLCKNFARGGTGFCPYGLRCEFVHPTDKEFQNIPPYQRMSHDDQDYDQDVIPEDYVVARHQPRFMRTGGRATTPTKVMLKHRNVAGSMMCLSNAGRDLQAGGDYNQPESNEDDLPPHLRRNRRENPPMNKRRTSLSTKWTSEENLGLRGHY

[3] = biological target: T4, Endoribonuclease toxin MazF (Escherichia coli K-12, UniProt P0AE70); experiment: activation of MazEF endoribonuclease cleavage – biochemical, fluorescence, single-stranded RNA substrate, uHTS hits, dose response (AID 588481); type: functional
T4 sequence (P0AE70 whole entry): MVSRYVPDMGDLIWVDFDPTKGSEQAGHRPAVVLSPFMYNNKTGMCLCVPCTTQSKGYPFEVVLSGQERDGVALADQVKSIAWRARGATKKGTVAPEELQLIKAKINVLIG

[4] = biological target: UDP-galactopyranose mutase (Mycobacterium tuberculosis, UniProt P9WIQ1); experiment: Inhibitors of Mycobacterium tuberculosis UDP-galactopyranose mutase (UGM) enzyme Measured in Biochemical System Using Plate Reader - 2105-02_Inhibitor_Dose_CherryPick_Activity. [Related pubchem assays (depositor defined):AID504439]
Chain of UDP-galactopyranose mutase (P9WIQ1 whole entry): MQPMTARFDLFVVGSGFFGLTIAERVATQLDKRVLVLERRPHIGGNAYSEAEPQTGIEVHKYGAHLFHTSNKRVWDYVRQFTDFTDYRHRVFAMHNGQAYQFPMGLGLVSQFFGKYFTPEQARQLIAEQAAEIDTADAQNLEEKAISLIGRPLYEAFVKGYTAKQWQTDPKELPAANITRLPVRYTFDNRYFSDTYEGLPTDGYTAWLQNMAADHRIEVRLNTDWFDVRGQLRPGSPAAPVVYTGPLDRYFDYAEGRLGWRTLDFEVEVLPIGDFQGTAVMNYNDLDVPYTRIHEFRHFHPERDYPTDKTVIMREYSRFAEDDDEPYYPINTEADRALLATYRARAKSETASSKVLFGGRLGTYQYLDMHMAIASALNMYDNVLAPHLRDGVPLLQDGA

[5] = biological target: T4, Endoribonuclease toxin MazF; experiment: substrate-only fluorescence increase artefacts – biochemical, single-stranded RNase substrate, counter-screen for MazEF activator project, dose response (AID 588502); type: functional
Leucine aminopeptidase = biological target: T5, Leucine aminopeptidase (Plasmodium falciparum 3D7, UniProt Q8IL11); experiment: P. falciparum M17LAP inhibitors, primary screen, biochemical, fluorogenic H-Leu-NHMec substrate, 1536-well (AID 1619); type: functional
T5 sequence (Q8IL11 whole entry): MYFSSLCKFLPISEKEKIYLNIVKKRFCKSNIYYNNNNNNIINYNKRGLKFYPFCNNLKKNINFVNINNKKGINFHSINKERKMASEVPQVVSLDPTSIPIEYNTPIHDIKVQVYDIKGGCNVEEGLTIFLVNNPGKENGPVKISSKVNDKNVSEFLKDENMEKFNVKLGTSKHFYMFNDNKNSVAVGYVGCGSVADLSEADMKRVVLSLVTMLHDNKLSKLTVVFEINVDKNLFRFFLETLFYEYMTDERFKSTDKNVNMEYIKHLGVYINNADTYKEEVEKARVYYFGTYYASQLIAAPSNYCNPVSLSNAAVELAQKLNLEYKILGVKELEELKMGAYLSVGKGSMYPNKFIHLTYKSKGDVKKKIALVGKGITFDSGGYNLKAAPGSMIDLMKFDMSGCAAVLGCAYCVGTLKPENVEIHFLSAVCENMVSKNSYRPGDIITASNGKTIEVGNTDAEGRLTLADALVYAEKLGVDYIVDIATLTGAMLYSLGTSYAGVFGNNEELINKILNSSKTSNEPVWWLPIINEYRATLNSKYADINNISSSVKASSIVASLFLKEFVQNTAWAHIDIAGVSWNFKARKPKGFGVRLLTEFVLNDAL

Aspartyl aminopeptidase = biological target: T6, Aspartyl aminopeptidase (Plasmodium falciparum 3D7, UniProt Q8I2J3); experiment: Counterscreen for inhibitors of M1 and M17 aminopeptidases: QFRET-based biochemical high throughput dose response assay for inhibitors of the Plasmodium falciparum M18 Aspartyl Aminopeptidase (PFM18AAP). [Related PubChem assays: 1619 (Screening assay (M17LAP inhibitors).), 1445 (Screening assay (M1AAP inhibitors).)]
T6 sequence (Q8I2J3 whole entry): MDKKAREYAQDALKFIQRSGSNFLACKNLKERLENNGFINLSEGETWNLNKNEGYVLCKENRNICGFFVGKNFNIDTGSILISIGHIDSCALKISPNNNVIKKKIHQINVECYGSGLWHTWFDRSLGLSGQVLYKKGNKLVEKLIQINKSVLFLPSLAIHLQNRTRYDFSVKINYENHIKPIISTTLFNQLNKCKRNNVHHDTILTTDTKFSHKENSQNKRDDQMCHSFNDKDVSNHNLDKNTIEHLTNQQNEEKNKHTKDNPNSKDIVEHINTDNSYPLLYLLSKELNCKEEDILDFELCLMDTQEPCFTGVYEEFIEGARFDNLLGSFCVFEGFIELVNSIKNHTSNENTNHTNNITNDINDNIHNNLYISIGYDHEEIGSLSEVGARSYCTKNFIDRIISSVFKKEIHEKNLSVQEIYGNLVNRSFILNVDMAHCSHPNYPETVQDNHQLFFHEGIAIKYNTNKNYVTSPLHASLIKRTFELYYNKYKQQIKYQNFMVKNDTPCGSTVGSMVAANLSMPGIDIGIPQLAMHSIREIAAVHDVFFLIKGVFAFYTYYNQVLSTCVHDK

Procathepsin L = Procathepsin L (Homo sapiens, UniProt P07711); experiment: CTSL1 protease inhibition – biochemical, QFRET, 1536-well, counter-screen for M1/M17 aminopeptidase inhibitor project, dose response (AID 2214)
Chain of Procathepsin L (P07711 whole entry): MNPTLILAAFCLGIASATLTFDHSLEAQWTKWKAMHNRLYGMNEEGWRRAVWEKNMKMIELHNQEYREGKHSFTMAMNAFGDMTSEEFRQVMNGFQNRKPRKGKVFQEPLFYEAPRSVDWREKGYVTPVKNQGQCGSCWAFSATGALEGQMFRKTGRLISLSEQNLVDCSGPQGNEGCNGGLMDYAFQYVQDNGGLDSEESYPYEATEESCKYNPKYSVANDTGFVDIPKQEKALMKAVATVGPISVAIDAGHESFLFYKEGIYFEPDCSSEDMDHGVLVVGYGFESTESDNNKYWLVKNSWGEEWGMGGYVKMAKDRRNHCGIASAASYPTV

[6] = biological target: T7, Mannose-6-phosphate isomerase (Homo sapiens, UniProt P34949); experiment: phosphomannose isomerase inhibition – biochemical, fluorescence intensity, confirmation (AID 1535)
T7 sequence (P34949 whole entry): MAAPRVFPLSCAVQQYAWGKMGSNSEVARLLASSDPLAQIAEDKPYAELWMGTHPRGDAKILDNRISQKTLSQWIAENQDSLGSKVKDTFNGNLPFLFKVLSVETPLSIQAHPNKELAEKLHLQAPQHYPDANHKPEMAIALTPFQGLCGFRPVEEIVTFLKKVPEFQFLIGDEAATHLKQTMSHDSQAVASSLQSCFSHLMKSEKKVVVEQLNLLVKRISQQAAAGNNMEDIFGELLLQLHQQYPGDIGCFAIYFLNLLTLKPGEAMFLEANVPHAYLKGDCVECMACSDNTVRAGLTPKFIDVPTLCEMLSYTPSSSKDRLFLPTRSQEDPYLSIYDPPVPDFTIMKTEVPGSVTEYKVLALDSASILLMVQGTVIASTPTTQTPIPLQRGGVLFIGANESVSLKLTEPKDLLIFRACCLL

[7] = biological target: DNA dC->dU-editing enzyme APOBEC-3A (Homo sapiens, UniProt P31941); experiment: A3A deaminase inhibition for selectivity – biochemical, dose response (AID 504722); type: functional
Chain of DNA dC->dU-editing enzyme APOBEC-3A (P31941 whole entry): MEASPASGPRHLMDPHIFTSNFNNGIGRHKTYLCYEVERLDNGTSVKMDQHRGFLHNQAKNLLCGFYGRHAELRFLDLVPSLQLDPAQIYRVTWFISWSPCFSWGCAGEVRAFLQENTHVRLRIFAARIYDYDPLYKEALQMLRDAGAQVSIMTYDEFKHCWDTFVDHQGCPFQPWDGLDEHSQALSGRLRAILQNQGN

Phosphomannomutase 2 = Phosphomannomutase 2 (Homo sapiens, UniProt O15305); experiment: Counter screen SAR assay for PMM2 inhibitors via a fluorescence intensity assay. [Related pubchem assays (depositor defined):AID1545, AID1574]
Chain of Phosphomannomutase 2 (O15305 whole entry): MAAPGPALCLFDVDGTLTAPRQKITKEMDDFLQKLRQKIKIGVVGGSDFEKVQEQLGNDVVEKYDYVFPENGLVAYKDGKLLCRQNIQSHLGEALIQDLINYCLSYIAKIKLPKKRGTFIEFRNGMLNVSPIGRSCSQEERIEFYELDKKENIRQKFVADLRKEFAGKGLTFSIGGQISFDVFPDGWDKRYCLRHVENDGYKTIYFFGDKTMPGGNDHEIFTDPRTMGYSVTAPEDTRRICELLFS

Escherichia coli = experiment: microbe, parasite or virus in culture
[8] = biological target: Intestinal-type alkaline phosphatase (Mus musculus, UniProt P24822); experiment: PubChem AID 488874; type: functional
Chain of Intestinal-type alkaline phosphatase (Mus musculus, UniProt P24822) (P24822 whole entry): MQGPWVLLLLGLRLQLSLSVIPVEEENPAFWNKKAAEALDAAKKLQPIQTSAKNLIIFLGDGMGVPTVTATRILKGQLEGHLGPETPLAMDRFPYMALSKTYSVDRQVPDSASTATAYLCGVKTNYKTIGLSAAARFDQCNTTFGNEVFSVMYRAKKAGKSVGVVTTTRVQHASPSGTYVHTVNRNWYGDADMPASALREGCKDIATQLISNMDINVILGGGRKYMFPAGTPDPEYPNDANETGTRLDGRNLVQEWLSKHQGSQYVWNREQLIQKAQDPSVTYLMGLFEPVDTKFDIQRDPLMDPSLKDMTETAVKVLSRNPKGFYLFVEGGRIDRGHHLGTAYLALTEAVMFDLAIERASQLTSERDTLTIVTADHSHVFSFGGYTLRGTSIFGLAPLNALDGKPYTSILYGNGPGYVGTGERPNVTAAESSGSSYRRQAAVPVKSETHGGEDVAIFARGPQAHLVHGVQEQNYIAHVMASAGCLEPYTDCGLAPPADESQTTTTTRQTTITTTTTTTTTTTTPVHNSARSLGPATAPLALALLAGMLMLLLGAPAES

[9] = biological target: T8, Intestinal-type alkaline phosphatase (Homo sapiens, UniProt P09923); experiment: inhibition of human intestinal alkaline phosphatase – biochemical, luminescent, uHTS hits, set 2, dose response (AID 488793); type: functional
T8 sequence (P09923 whole entry): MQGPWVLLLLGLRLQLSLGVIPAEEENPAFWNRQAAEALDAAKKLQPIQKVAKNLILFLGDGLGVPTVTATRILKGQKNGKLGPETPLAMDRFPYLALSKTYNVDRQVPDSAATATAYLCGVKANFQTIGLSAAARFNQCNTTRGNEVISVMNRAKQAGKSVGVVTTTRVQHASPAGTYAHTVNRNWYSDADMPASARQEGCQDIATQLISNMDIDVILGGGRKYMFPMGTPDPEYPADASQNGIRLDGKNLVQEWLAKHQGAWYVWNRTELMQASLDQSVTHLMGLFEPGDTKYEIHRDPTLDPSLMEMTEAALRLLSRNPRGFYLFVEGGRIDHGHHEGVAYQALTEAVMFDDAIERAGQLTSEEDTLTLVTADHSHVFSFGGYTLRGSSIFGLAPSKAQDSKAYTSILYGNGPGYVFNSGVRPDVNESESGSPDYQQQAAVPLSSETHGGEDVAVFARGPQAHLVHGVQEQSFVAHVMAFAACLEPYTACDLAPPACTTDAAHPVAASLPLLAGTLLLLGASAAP

[10] = biological target: T8, Intestinal-type alkaline phosphatase; experiment: Dose Response confirmation of uHTS hits from a small molecule inhibitors of human intestinal alkaline phosphatase via a luminescent assay. [Related pubchem assays (depositor defined):AID2544, AID2574]; type: functional
[11] = biological target: T9, Alkaline phosphatase, tissue-nonspecific isozyme (Homo sapiens, UniProt P05186); experiment: inhibition of tissue-nonspecific alkaline phosphatase – biochemical, dose response (AID 488882); type: functional
T9 sequence (P05186 whole entry): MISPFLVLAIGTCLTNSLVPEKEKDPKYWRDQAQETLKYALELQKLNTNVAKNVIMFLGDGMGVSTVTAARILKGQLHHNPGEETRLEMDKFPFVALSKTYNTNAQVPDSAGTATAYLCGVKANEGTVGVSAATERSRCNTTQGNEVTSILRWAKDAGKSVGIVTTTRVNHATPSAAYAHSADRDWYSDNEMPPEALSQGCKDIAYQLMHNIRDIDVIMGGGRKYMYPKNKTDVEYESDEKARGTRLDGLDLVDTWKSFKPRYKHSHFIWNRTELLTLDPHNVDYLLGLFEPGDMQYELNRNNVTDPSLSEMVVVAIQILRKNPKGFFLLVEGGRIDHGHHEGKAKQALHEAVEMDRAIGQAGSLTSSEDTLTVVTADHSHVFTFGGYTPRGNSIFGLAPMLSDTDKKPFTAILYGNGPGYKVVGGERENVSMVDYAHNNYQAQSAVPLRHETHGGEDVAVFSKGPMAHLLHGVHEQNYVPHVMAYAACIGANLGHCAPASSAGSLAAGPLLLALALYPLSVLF

[12] = Luminescence Cell-Based Dose Retest to Confirm Inhibitors of Cancer Stem Cells. [Related pubchem assays (depositor defined):AID2717, AID2721]; type: functional; details: Homo sapiens
CAAX prenyl protease 2 = biological target: T10, CAAX prenyl protease 2 (Saccharomyces cerevisiae S288c, UniProt Q03530); type: biochemical
T10 sequence (Q03530 whole entry): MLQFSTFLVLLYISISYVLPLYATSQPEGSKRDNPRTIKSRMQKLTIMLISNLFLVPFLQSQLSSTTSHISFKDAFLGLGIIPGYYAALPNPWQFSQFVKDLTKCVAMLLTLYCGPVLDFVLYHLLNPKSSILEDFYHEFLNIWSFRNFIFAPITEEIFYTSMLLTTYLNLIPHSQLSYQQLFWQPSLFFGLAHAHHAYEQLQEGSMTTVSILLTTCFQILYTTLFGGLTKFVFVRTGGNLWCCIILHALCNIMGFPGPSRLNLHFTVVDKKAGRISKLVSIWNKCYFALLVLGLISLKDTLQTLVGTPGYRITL

[13] = viability loss of HMLE_sh_eGFP cells – cell-based, luminescence, counter-screen for HMLE_sh_ECad selective toxicity project, dose response (AID 463074); type: functional, Homo sapiens;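 also: HMLE human mammary epithelial cells expressing control shRNA against eGFP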
[14] = T. cruzi infection blockers in NIH3T3 cells – beta-gal luminescence, NIH3T3 host cells, confirmation (AID 2630); type: functional, cell-based; details: Mus musculus

Chain of Cytochrome P450 2C19 (P33261 whole entry): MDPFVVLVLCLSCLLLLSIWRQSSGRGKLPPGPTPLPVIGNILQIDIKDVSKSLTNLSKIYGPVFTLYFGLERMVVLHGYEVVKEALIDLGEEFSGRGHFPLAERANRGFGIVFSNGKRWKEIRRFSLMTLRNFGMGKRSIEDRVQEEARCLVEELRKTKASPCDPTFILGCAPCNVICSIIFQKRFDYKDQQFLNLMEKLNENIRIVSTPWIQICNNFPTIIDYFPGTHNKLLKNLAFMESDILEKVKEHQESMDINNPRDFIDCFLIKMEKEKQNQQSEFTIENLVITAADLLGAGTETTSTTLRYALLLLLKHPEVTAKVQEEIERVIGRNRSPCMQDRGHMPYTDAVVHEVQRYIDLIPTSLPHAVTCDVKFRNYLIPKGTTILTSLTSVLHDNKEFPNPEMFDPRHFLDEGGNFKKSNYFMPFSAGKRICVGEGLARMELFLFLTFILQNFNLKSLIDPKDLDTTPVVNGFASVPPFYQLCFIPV

## CCOC(=O)[C@H](CCc1ccccc1)N[C@@H](C)C(=O)N1[C@H](C(=O)O)C[C@H]2CCC[C@@H]21
Cytochrome P450 2C19
  AC50: inactive
Cytochrome P450 1A2
  AC50: inactive

## O=C(c1cccc(F)c1)N1CCC2(CC1)CCN(c1ccccn1)CC2
Cytochrome P450 2D6
  AC50: 20 µM (inconclusive)
Cytochrome P450 3A4
  AC50: inconclusive

## Cc1ccc(Cl)c2c(N=Nc3ccccc3)c(O)[nH]c12
[1]
  EC50: 18.6 µM (active)
[2]
  EC50: > 300 µM (inconclusive)
[3]
  EC50: 19.1 µM (active)
[4]
  AC50: 113 µM (active)
[5]
  EC50: 8.15 µM (active)

## Sc1n[nH]c(-c2ccccc2Br)n1
Leucine aminopeptidase
  IC50: 4.67 µM (active)
Aspartyl aminopeptidase
  IC50: 19.3 µM (not active)
Procathepsin L
  IC50: > 59.6 µM (not active)
[6]
  IC50: 37.6 µM (active)
[7]
  IC50: > 100 µM (inactive)
Phosphomannomutase 2
  IC50: > 100 µM (inactive)
Escherichia coli
  AC50: 30.2 µM (active)

## c1ccc(CSCCc2ccncc2)cc1
[8]
  IC50: > 100 µM (inactive)
[9]
  IC50: 23.4 µM (active)
[10]
  IC50: 23.1 µM (inactive)
[11]
  IC50: 47.9 µM (active)

## CCCCN=C(S)N=Nc1c(O)n(Cc2ccccc2)c2ccccc12
[12]
  AC50: 61.5 µM (active)
CAAX prenyl protease 2
  AC50: 0.601 µM (active)
[13]
  AC50: 119 µM (active)

## CCn1cc(CN2CCCC(C(=O)c3cccc(C(F)(F)F)c3)C2)cn1 (centres undefined)
[14]
  EC50: 0.25 µM (active)
